The text below walks through data of BindingDB's records for PubMed 35176561 (Shenyang Pharmaceutical University, 2022).

For the test, the target named is Amyloid-beta precursor protein (Homo sapiens, UniProt P05067). Nature of the test: Inhibition of amyloid beta 42 (unknown origin) secretion.
Sequence of Amyloid-beta precursor protein (P05067 whole entry): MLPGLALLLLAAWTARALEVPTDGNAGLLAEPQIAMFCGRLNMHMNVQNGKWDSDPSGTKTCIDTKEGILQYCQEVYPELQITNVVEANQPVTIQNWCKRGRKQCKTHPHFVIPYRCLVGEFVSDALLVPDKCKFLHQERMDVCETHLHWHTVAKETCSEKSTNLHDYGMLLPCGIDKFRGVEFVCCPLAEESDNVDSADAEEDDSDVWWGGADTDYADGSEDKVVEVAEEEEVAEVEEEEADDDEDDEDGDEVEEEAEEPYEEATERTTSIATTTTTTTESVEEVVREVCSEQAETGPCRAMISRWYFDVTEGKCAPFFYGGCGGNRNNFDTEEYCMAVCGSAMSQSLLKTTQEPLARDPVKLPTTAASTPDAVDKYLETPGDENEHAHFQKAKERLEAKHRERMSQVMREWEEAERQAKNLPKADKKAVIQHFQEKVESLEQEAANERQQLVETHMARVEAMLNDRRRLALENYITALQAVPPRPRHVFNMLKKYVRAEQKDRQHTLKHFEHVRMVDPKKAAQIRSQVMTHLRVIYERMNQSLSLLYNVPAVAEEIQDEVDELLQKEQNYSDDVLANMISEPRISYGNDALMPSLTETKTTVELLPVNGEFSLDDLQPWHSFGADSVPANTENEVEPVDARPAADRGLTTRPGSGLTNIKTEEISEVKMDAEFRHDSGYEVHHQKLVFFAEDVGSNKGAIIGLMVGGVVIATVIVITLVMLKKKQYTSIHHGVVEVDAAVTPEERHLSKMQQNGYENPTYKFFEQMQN

With `COc1nc(-c2cc(C)c(N[C@@H](C)c3cc(F)cc(F)c3)nn2)ccc1-n1cnc(C)c1`, the midpoint of inhibition, the IC50, lay at 4.1 nM. This counts as single-digit nanomolar.
In the case of `COc1nc(-c2cc(C)c(N[C@@H](C)c3cc(F)c(F)c(F)c3)nn2)ccc1-n1cnc(C)c1`, the IC50 (usually the midpoint of a concentration-inhibition curve) was 5.3 nM. This IC50 and that of the compound before are within 1.5-fold of each other.
